# Source: US10836726B2, “AZO-quaternary pyridinium salts with acid-enhanced antibacterial efficacy, methods of use, methods of synthesis, and uses thereof” (priority 2016, dated 2020)
# Tests used:
# Assay type in all cases: cell-based
# [1] = test system: Streptococcus mutans (S. mutans, UA159); assay: Minimum bactericidal concentration (MBC) determination by agar colony formation; settings: more effective in acidic conditions
# Source text: The inventor observed similar pH-sensitive antibacterial activity of Azo-QPS-C16 towards the Gram-positive, lactic acid producing, cariogenic bacteria S. mutans.
# Bacterial strains and growth conditions. Streptococcus mutans (S. mutans, UA159) and Escherichia coli (E. coli, K12) were purchased from ATCC (American Type Culture Collection, Manassas, Va., USA). Todd Hewitt Broth (THB), and Lysogeny Broth (LB) powder and agar were purchased from BD (Becton, Dickinson and Company, Franklin Lakes, N.J., USA). Planktonic cultures were inoculated from 25% (by volume) glycerol frozen stocks stored at −80° C. E. coli cultures were grown in LB at 37° C. in a shaker-incubator. S. mutans cultures were grown in THB at 37° C. with 5% (by volume) CO2 overnight.
# (§1) In a 96-well plate, 2 μL of Azo-QPS-C16 at various concentrations in dimethyl sulfoxide (DMSO) were added to 98 μL of bacteria suspension per well for a final concentration ranging from a 2-fold dilution series between 40 to 1.25 μg/mL of Azo-QPS-C16. […] E. coli were cultured at 37° C., and the OD600 of each well was measured by a Tecan Spark microplate reader (Männedorf, Switzerland) every 15 minutes for up to 19 hours, with 30 seconds shaking before each measurement. S. mutans were grown at 37° C. with 5% CO2, and the OD600 of each well was measured periodically using a Molecular Devices (Sunnyvale, Calif.) SpectraMax M5 microplate reader. […]
# [2] = test system: Escherichia coli (E. coli, K12); assay: Bacterial growth curves (OD600) after exposure in pH buffers
# Protocol: (§2) Azo-QPS-C16 was effective on both […] bacteria. The ability of bacteria to proliferate after exposure to Azo-QPS-C16 was characterized by adding growth medium and measuring the optical density (OD) at 600 nm every 15 minutes in pH 4.1, 5.8, and 7.9 buffer. […] However, exposure at pH 7.9 required a much higher concentration (40 μg/mL) to inhibit cell growth. […] The pH dependence of bactericidal activity of Azo-QPS-C16 in terms of minimum bactericidal concentration (MBC) was evaluated by inoculating cultures onto a Lysogeny Broth (LB) agar plate after treating the cells with a twofold dilution series of Azo-QPS-C16.
# (§3) Bacterial strains and growth conditions. […]
# as §1
# [3] = test system: Escherichia coli (E. coli, K12); assay: Minimum bactericidal concentration (MBC) determination by agar colony formation; settings: MBC increased as pH increased
# Protocol: as §2, §3, §1
smiles,measurement,setting,value
"C=C(C)C(=O)Oc1ccc(/N=N/c2cc[n+](CCCCCCCCCCCCCCCC)cc2)cc1.[Br-] [Azo-QPS-C16, (E)-1-hexadecyl-4-((4-(methacryloyloxy)phenyl)diazenyl)-pyridinium bromide]",MBC-based effectiveness in acidic versus mildly basic conditions,[1],8 fold
same,concentration that fully inhibited E. coli growth up to 19 hours,"[2]; exposure at pH 4.1, 45 min treatment, OD 600 nm",2.5 µg/mL
same,concentration required to inhibit cell growth,"[2]; exposure at pH 7.9, E. coli",40 µg/mL
same,difference in MBC between pH 4.1 and pH 7.9,[3],16 fold
